Experimental data as given in patent US8710098B2, “Group of amino substituted benzoyl derivatives and their preparation and their use” (priority 2008, dated 2014).
In brackets after ≈: the same amount, converted by molar mass.

What follows are compounds tested on HIV-1 (assay: microbe, parasite or virus in culture). Settings: Human immunodeficiency virus 1, 96 h, read-out: inhibitory activity to HIV-1, IC50.
Procedure: The inhibitory activities of the compounds proposed in this invention to HIV-1 were measured using HIV-1 P24 antigen kit.
DMSO solutions of samples of test compounds listed in Table 2 diluted to 8 different concentrations and the solution of the positive control AZT (azidothymidine, 0.15 ng/ml) are respectively added into 96 well plates, duplications are set for each of the dilutions, and negative control samples are also made. Aliquots of 100 μl 2×10^5 cell/ml suspension are inoculated onto the 96 well cell culture plates and cultured in an incubator under a condition of 37° C., 5% CO2 and saturated humidity. The pathologic changes of the cells are observed every day. The HIV-1 P24 antigen contents in supernatant cells are measured in 4 days (96 h) after addition of the test compounds according to the operation procedure provided by the HIV-1 P24 antigen kit.

Compound | IC50
COc1ccc(C(=O)Nc2cc(OC)c(OC)c(OC)c2)cc1NC(=O)C(C)Br (stereo not drawn) [Compound 26] | 0.0203 µg/mL (≈ 0.0434 µM)
COc1ccc(C(=O)Oc2cc(OC)c(OC)c(OC)c2)cc1NC(=O)C(C)Br (stereo not drawn) [Compound 35] | 0.0223 µg/mL (≈ 0.0476 µM)
CCC(=O)Nc1cc(C(=O)Nc2cc(OC)c(OC)c(OC)c2)ccc1OC [Compound 261, N-(3′,4′,5′-trimethoxyphenyl) 3-propionamido-4-methoxybenzamide] | 0.0227 µg/mL (≈ 0.0584 µM)
COc1ccc(C(=O)Nc2cc(OC)c(OC)c(OC)c2)cc1N [Compound 262, N-(3′,4′,5′-trimethoxyphenyl) 3-amino-4-methoxybenzamide] | 0.0244 µg/mL (≈ 0.0734 µM)

These compounds were tested against T1, hA3G degradation mediated by HIV-1 Vif (UniProt P69723+Q9HC16) (assay: Screening experiment for up-regulation activity to hA3G (YFP-fused hA3G co-expressed with HIV-1 Vif, fluorescence)). Settings: YFP fluorescence of cells co-expressing Vif and hA3G-YFP; excitation 485 nm, detection 520 nm; averages of duplicates.
T1 construct: expressed in transfected cells
T1 sequence (P69723 whole entry, the tested form may be a part): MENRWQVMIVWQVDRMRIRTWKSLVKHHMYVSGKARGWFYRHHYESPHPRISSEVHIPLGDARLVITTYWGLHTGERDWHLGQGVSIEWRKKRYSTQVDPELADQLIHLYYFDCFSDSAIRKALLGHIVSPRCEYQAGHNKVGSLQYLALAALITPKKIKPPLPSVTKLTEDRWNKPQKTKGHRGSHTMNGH
T1 sequence (Q9HC16 whole entry, the tested form may be a part): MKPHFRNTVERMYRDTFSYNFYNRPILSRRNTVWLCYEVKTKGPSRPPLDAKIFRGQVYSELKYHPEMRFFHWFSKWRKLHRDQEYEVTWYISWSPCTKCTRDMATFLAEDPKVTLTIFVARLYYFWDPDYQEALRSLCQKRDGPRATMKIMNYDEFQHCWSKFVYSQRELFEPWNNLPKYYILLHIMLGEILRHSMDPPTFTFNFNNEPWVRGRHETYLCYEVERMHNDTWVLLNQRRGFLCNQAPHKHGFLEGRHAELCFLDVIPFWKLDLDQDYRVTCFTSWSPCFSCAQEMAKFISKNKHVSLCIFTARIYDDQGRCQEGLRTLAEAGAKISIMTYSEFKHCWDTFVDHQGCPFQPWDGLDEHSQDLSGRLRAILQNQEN
Assay type: cell-based, human
Excerpt: Based on the advances making research on the hA3G degradation mediated by HIV-1 Vif, this invention establishes a high throughput anti-HIV-1 drug screening model using hA3G degradation mediated by HIV-1 Vif as target, to screen small molecule active compounds capable of inhibiting this degradation process. The function principle of this model is that HIV-1 Vif protein and hA3G fused yellow fluorescent protein (YFP) co-expressed in the cells, then the intracellular fluorescence intensity (at […]) decreases owing to the degradation of hA3G caused by Vif and subsequent degradation of YEP fused on hA3G. By means of measuring the change of fluorescent intensity, the influence of the screened compounds on the degradation of hA3G caused by Vif can quantitatively be analyzed. Simultaneously, to differentiate the non-specific inhibitory effect of diverse ubiquitin degradation route in the samples, this invention establishes a recheck model based on the detection of P53 degradation caused by the product of adenovirus early gene, to assure that the positive samples screened out by the proposed model can specifically block the degradation of hA3G caused by Vif.
Screening Experiment for Up-Regulation Activity to hA3G
The cells are picked up and cultured a culture bottle. When the cells grow full of the culture bottle, old culture medium is discarded and the cells are digested with digestion medium. When the cells turn round, the digestion medium is discarded and the culture medium is added in at once, the bottom of the bottle is gently blown with a pipette to make the cells disengage the bottle bottom and disperse into single cell suspension. After counting the cells using blood cell counting chamber, the cell suspension is inoculated into a culture dish for transfection. The medium containing the plasmid to be transfected and the transfection reagents is gently mixed up and incubated at room temperature. The medium is then added into the supernatant of the cell culture and cultured for a certain period of time. The old culture medium is then sucked out, the cells are digested with digestive medium, the digestive medium is subsequently discarded and culture medium is immediately added. The medium is gently blown to disperse the cells into single cell suspension. After counting the cells using blood cell counting chamber, the cells are ready for inoculation.
Samples of compounds[…]Pure tested compounds are dissolved in DMSO, the solution is diluted with equal proportional distilled water. The diluent is used to test the cell systems.
Sample solution of different concentration is added into the supernatant of a cell culture. After the cells are continuously cultured, old culture medium is sucked out and the cells are blown with PBS buffer until the cells completely disengage from the culture bottle.
The fluorescence intensity values of the cell suspension with test compound samples, positive control samples and negative control samples are respectively measured with fluorometer, the excitation wavelength is 485 nm and the detection wavelength 520 nm. Averages of duplicated measurements are taken as the results.
The measured fluorescence intensity values of the negative control samples (blink sample) subtracted from those of test compound samples, the results are taken as YFP fluorescence of different groups. Relative fluorescence intensity=fluorescence intensity of a test sample group/fluorescence intensity of the positive control group×100% Inhibition rate of degradation=(test sample group−negative control group)/(positive control group−negative control group)×100%

Compound | hA3G up-regulation activity (%)
COc1ccc(C(=O)Nc2cc(OC)c(OC)c(OC)c2)cc1NC(=O)C(C)Br (stereo not drawn) [Compound 26] | 42.7%
COc1ccc(C(=O)Oc2cc(OC)c(OC)c(OC)c2)cc1NC(=O)C(C)Br (stereo not drawn) [Compound 35] | 44.9%
CCC(=O)Nc1ccc(C(=O)Nc2cc(OC)c(OC)c(OC)c2)cc1OC [Compound 64, N-(3′,4′,5′-trimethoxyphenyl)-3-methoxy-4-propionamidobenzamide] | 11.7%
CCC(=O)Nc1cc(C(=O)Nc2ccc(OC(F)(F)F)cc2)ccc1OC [Compound 67] | 11.3%
COc1ccc(C(=O)Nc2cc(OC)c(OC)c(OC)c2)cc1C#N [Compound 68, N-(3′,4′,5′-trimethoxyphenyl)-3-cyano-4-methoxybenzamide] | 9.8%
CCC(=O)Nc1cc(C(=O)Nc2ccc(OC(F)(F)F)cc2)ccc1C [Compound 69, N-(4′-trifluoromethoxyphenyl)-3-propionamido-4-methylbenzamide] | 31.2%
CCC(=O)Nc1cc(C(=O)Nc2ccc(OC(F)(F)F)cc2)ccc1F [Compound 70] | 24.7%
COc1cc(OC(=O)c2cc(Cl)cc(NC(C)=O)c2)cc(OC)c1OC [Compound 72] | 24.3%
COc1cc(OC(=O)c2cc(NC(C)=O)cc(C(F)(F)F)c2)cc(OC)c1OC [Compound 73, 3′,4′,5′-trimethoxyphenyl 3-acetamido-5-trifluoromethylbenzoate] | 29.0%
COc1cc(NC(=O)c2cc(NC(C)=O)cc(C(F)(F)F)c2)cc(OC)c1OC [Compound 74] | 8.5%
CCC(=O)Nc1cc(C(=O)Nc2cc(OC)c(OC)c(OC)c2)cc(OC)c1F [Compound 75, N-(3′,4′,5′-trimethoxyphenyl)-3-propionamido-4-fluoro-5-methoxybenzamide] | −1.1%
CCC(=O)Nc1cc(C(=O)Nc2cc(OC)c(OC)c(OC)c2)cc(F)c1OC [Compound 77] | 14.9%
CCC(=O)Nc1cc(C(=O)Nc2ccc(OC)c(F)c2)ccc1OC [Compound 78] | 8.8%
CCC(=O)Nc1cc(C(=O)Nc2cc(OC)c(OC)c(OC)c2)c(F)cc1OC [Compound 79, N-(3′,4′,5′-trimethoxyphenyl)-3-propionamido-4-methoxy-6-fluorobenzamide] | 21.6%
CCC(=O)Nc1cc(C(=O)Nc2ccc(N)c(F)c2)ccc1OC [Compound 80, N-(3′-fluoro-4′-aminophenyl)-3-propionamido-4-methoxybenzamide] | 37.1%
CCC(=O)Nc1cc(C(=O)Nc2cc(OC)c(NC)c(OC)c2)ccc1OC [Compound 81] | 14.4%
CCC(=O)Nc1cc([S+]([O-])Nc2cc(OC)c(OC)c(OC)c2)ccc1OC (stereo not drawn) [Compound 82] | 28.5%
CCC(=O)Nc1cc(S(=O)(=O)Nc2cc(OC)c(OC)c(OC)c2)ccc1OC [Compound 83, N-(3′,4′,5′-trimethoxyphenyl) 3-propionamido-4-methoxybenzenesulfamide] | 31.0%
CCC(=O)Nc1cc(S(=O)(=O)Oc2cc(OC)c(OC)c(OC)c2)ccc1OC [Compound 84, 3′,4′,5′-trimethoxyphenyl 3-propionamido-4-methoxybenzenesulfonate] | 9.0%
COc1ccc(S(=O)(=O)Nc2cc(OC)c(OC)c(OC)c2)cc1N [Compound 85, N-(3′,4′,5′-trimethoxyphenyl)-3-amino-4-methoxybenzenesulfonamide] | 6.8%
CCC(=O)Oc1cc(C(=O)Nc2cc(OC)c(OC)c(OC)c2)ccc1OC [Compound 86] | 20.3%

Compound | hA3G up-regulation activity (%)
COc1ccc(C(=O)Nc2cc(OC)c(OC)c(OC)c2)cc1O [Compound 87, N-(3′,4′,5′-trimethoxyphenyl)-3-hydroxyl-4-methoxybenzamide] | 19.7%
CCC(=O)Nc1cc(NNc2cc(OC)c(OC)c(OC)c2)ccc1OC [Compound 89] | 31.3%
COc1ccc(S(=O)(=O)Nc2cc(OC)c(OC)c(OC)c2)cc1O [Compound 90] | 28.2%
CCC(=O)Nc1cc(NS(=O)(=O)c2cc(OC)c(OC)c(OC)c2)ccc1OC [Compound 91, N-(3′-propionamido-4′-methoxyphenyl)-(3,4,5-trimethoxy)benzenesulfonamide] | 16.6%
CCC(=O)Nc1cc(NS(=O)(=O)c2cc(OC)nc(OC)n2)ccc1OC [Compound 92] | 23.7%
CCC(=O)Nc1cc(S(=O)(=O)Nc2cc(OC)nc(OC)n2)ccc1OC [Compound 93] | 34.2%
CCC(=O)Nc1cc(S(=O)(=O)Nc2ccc(OC)c(OC)c2)ccc1OC [Compound 94] | 16.1%
CCC(=O)Nc1cc(S(=O)(=O)Nc2ccc(OC)c(OC)c2)cc(F)c1OC [Compound 95] | 8.7%
CCC(=O)Nc1cc(S(=O)(=O)Nc2ccc(NC)c(OC)c2)ccc1OC [Compound 96] | 6.9%
CCC(=O)Nc1cc(C(=O)Nc2ccc(OC)c(S(N)(=O)=O)c2)ccc1OC [Compound 97] | 6.4%
CNc1cc(C(=O)Nc2ccc(S(N)(=O)=O)c(F)c2)ccc1OC [Compound 98, N-(3′-fluoro-4′-aminosulfonylphenyl)-3-methylamino-4-methoxybenzamide] | 5.8%
CCC(=O)Nc1cc(C(=O)Nc2ccc(S(N)(=O)=O)c(OC)c2)ccc1OC [Compound 99] | 23.6%
CCC(=O)Nc1cc(C(=O)Nc2ccc(S(N)(=O)=O)c(F)c2)ccc1OC [Compound 100] | 13.6%
COc1ccc(C(=O)Nc2cc(OC)c(OC)c(OC)c2)cc1NS(C)(=O)=O [Compound 101] | 22.1%
COc1ccc(C(=O)Nc2ccc(OC)c(OC)c2)cc1NS(C)(=O)=O [Compound 102] | 10.3%
COc1ccc(C(=O)Oc2cc(OC)c(OC)c(OC)c2)cc1NS(C)(=O)=O [Compound 103, 3′,4′,5′-trimethoxyphenyl 3-methanesulfamido-4-methoxybenzoate] | 26.1%
CCC(=O)Nc1cc(C(=O)Nc2cc(OC)c(OC)c(OC)c2)ccc1OC [Compound 261, N-(3′,4′,5′-trimethoxyphenyl) 3-propionamido-4-methoxybenzamide] | 43.9%
COc1ccc(C(=O)Nc2cc(OC)c(OC)c(OC)c2)cc1N [Compound 262, N-(3′,4′,5′-trimethoxyphenyl) 3-amino-4-methoxybenzamide] | 36.2%
COc1ccc(C(=O)Oc2cc(OC)c(OC)c(OC)c2)cc1NC(=O)C(F)(F)F [Compound 353, 3,4,5-trimethoxyphenyl 3-trifluoroacetamido-4-methoxybenzoate] | 39.0%
CCC(=O)Nc1cc(C(=O)Nc2ccc([N+](=O)[O-])cc2)ccc1OC [Compound 2612, N-(4′-nitrophenyl)-3-propionamido-4-methoxybenzamide] | 22.3%
